Source: US9526782B2, “Pharmaceutical compositions comprising inhibitors of zinc-ZIP8-MTF1 as active ingredients for preventing or treating a joint disease” (GWANGJU INSTITUTE OF SCIENCE AND TECHNOLOGY, priority 2014, dated 2016)
Like-named read-outs stand apart in the source and are kept apart here. Values belong to the molecule of their own block, whether it stands above or below them.

Key:
[1] = system: matrix-degrading enzymes (MMP3, MMP9, MMP12, MMP13, and ADAMTS5); assay: mRNA (qRT-PCR) and protein (Western blotting) levels of matrix-degrading enzymes in chondrocytes; type: cell-based, mouse; conditions: for Ad-Mtf1-induced upregulation of matrix-degrading enzymes, effect of the test agent: chondrocytes infected with Ad-Mtf1; for upregulation of MMP3, MMP13, and ADAMTS5 by IL1β, effect of the test agent: chondrocytes treated with IL1β; for inhibitory effects of TPEN on the ZIP8-mediated expression of matrix-degrading enzymes, effect of pre-incubation of TPEN with the metal salt: Ad-Zip8 chondrocytes, TPEN 1 μM pre-incubated with 1 μM metal ion; for expression of matrix-degrading enzymes caused by the substance itself: chondrocytes, metal salts 100 μM (CdCl2 1 μM)
Procedure: (§1) Adenoviruses expressing mouse Zip8 (Ad-Zip8) and Mtf1 (Ad-Mtf1) were purchased from Vector Biolabs. Mouse articular chondrocytes were cultured for 2 days, infected with empty virus (Ad-C), Ad-Zip8, or Ad-Mtf1 for 2 hours at the indicated multiplicity of infection (MOI), and cultured for 24 hours, followed by further analyses.
(§2) Total RNA was extracted from primary cultured chondrocytes using the TRI reagent (Molecular Research Center Inc.). For the isolation of RNA from knee joints, cartilage tissues were scraped with a blade to remove cartilage, and RNA was isolated using the TRI reagent and Purelink RNA mini kit (Ambion). The RNA was reverse transcribed, and the resulting cDNA was amplified by PCR.
(§3) Transcript levels were quantified by qRT-PCR. siRNAs targeting Zip8 and Mtf1 were obtained from Dharmacon and transfected using Lipofectamine 2000. Non-targeting (scrambled) siRNA was used as a negative control. Chondrocytes were transfected by incubating for 6 hours with siRNA and Lipofectamine 2000 (Invitrogen), and infected with adenoviruses as described above. Therapeutic antibodies for obstruction of ZIP8 function were purchased from Santa Cruz Biotechnology and MyBioSource Company, and treated in chondrocytes for 24 hours.
Total cell lysates were prepared in lysis buffer (150 mM NaCl, 1% NP-40, 50 mM Tris, 5 mM NaF) and used to detect cellular proteins (ZIP8, MTF1, and ERK). Secreted proteins (MMP3, MMP13, and ADAMTS5) were detected after trichloroacetic acid (TCA) precipitation from 900 μl of serum-free conditioned medium. All lysis buffers contained a cocktail of protease inhibitors and phosphatase inhibitors (Roche).

ZIP8 [2] = molecular target: T1, ZIP8 (Mus musculus, UniProt Q91W10); assay: Zn^2+ imaging and quantitation with FluoZin-3 AM in primary cultured articular chondrocytes; type: cell-based; conditions: for ZIP8-mediated increase in Zn^2+ influx: chondrocytes infected with Ad-Zip8, with the test agent; for IL1β-caused influx of Zn^2+ in chondrocytes, effect of the test agent: chondrocytes treated with IL1β; for cellular Zn^2+ level, effect of the substance itself: chondrocytes
T1 construct: host or cells: primary mouse articular chondrocytes infected with Ad-Zip8
T1 sequence (Q91W10 20-462): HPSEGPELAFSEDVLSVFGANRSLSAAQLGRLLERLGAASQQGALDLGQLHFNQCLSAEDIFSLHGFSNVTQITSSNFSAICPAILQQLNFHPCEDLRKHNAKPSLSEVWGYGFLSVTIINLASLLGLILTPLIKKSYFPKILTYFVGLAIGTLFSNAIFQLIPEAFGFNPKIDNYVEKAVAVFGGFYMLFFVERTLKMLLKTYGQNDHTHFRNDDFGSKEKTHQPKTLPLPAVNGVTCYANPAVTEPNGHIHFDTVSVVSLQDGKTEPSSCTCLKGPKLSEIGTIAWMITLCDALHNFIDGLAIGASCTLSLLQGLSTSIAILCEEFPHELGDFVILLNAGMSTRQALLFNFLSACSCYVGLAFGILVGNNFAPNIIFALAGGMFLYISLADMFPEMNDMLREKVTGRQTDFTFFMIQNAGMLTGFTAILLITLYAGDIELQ
Procedure: Chondrocytes were maintained as a monolayer in Dulbecco's Modified Eagle's Medium (DMEM) supplemented with 10% fetal bovine serum (FBS) and antibiotics, and cells at culture day 2 were treated as indicated in each experiment.
as §1
Intracellular Zn^2+ was detected using the Zn^2+-selective fluorophore, FluoZin-3 AM (Invitrogen). […] Cells were then washed with Ca^2+- and Mg^2+-free phosphate-buffered saline (PBS) and incubated for an additional 30 minutes at 37° C. Intracellular Zn^2+ images were acquired with a fluorescence microscope, and population-wide fluorescence intensity was measured using a Spectramax Gemini microplate fluorescence reader (Molecular Devices) with excitation at 488 nm, cut-off at 515 nm, and emission at 530 nm.
as §3

MTF1 = molecular target: T2, MTF1 (Mus musculus, UniProt Q07243); assay: MTF1 activity reporter gene assay and immunostaining in chondrocytes; type: cell-based; conditions: for inhibitory effects of TPEN on MTF1 transcriptional activity, effect of pre-incubation of TPEN with the metal salt: Ad-Zip8 chondrocytes, TPEN 1 μM pre-incubated with 1 μM metal ion; for MTF1 transcriptional activity, effect of the substance itself: chondrocytes, reporter gene assay
T2 construct: endogenous in cells; host or cells: primary mouse articular chondrocytes
T2 sequence (Q07243 whole entry): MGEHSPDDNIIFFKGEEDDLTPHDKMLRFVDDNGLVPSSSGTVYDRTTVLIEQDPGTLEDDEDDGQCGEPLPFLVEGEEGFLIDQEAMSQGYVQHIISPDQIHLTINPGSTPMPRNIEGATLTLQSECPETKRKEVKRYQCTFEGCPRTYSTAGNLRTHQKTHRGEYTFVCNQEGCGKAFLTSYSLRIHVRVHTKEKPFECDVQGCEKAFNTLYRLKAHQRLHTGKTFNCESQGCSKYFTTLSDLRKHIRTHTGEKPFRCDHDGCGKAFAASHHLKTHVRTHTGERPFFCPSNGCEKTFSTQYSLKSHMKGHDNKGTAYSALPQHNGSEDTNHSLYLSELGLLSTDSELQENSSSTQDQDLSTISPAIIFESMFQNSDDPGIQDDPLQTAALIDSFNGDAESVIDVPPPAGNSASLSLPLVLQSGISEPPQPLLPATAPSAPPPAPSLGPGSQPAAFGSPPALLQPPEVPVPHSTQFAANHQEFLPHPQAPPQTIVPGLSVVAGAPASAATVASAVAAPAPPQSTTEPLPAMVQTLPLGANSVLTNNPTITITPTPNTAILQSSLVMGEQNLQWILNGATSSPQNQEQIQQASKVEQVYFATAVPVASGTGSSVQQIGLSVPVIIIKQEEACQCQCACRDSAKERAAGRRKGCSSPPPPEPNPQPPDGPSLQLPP
Procedure: The MTF1 reporter gene assay kit was obtained from SABiosciences. Chondrocytes were transfected for 6 hours with a metal response element (MRE) reporter construct and a constitutive Renilla luciferase construct using Lipofectamine 2000 (Invitrogen). Transfected cells were infected with Ad-Mtf1 or Ad-Zip8 for 2 hours or treated with metal ions. Cells were harvested 24 hours after treatment, and firefly luciferase and Renilla luciferase activities were measured using a Dual Luciferase Assay System (Promega). […] MTF1 was detected by immunofluorescence microscopy. Images were acquired using a fluorescence microscope, and at least 200 cells were examined in multiple fields per condition to quantify the percentage of nuclear MTF1-positive cells.

mouse knee joints = assay: Experimental OA induced by IA injection of adenovirus into mouse knee joints, histology and immunostaining; type: in vivo; conditions: 0.1 mg/kg body weight
Description: Male mice (C57BL/6, Col2a1-Zip8 TG, Zip8^+/−, Zip8^fl/fl; Zip8^fl/fl; Col2a1-Cre, Mtf1^+/−, Mtf1^fl/fl, Mtf1^fl/fl; Col2a1-Cre, Mt1^−/−; Mt2^−/−) were used for experimental OA studies. Chondrocyte-specific Zip8 TG (Col2a1-Zip8) mice were generated using the Col2a1 promoter and enhancer. Zip8^+/− mice were obtained from The European Mouse Mutant Archive. The Mtf1 mouse strain used for this research project was created from an ES cell clone generated by the Wellcome Trust Sanger Institute and developed into mice by the KOMP Repository and the Mouse Biology Program at the University of California, Davis. Zip8^+/− and Mtf1^+/− mice were backcrossed with Actb-Flp1 TG mice (The Jackson Laboratory) to generate Zip8fl/fl and Mtf1fl/fl mice, respectively. These mice were then backcrossed with Col2a1-Cre TG mice (The Jackson Laboratory) to generate chondrocyte-specific CKO mice (Zip8^fl/fl; Col2a1-Cre and Mtf1^fl/fl; Col2a1-Cre). Mt1^−/−, Mt2^−/− double-KO mice were obtained from The Jackson Laboratory. […]
Human OA cartilage was frozen, sectioned at 10-μm thickness, and fixed in paraformaldehyde. Sulfate proteoglycan was detected with alcian blue staining. Human ZIP8 was detected by immunostaining. […] Sections were deparaffinized in xylene, hydrated with graded ethanol, and stained with safranin-O. Cartilage destruction was scored by two blinded observers using the OARSI grading system (Glasson et al., 2010). Synovitis was determined by safranin-O and hematoxylin staining, and synovial inflammation (grade 0-3) was scored as described previously (Yang et al., 2010). Osteophyte development was identified by safranin-O staining, and osteophyte maturity was quantified as described previously (Oh et al., 2012). Subchondral bone sclerosis was determined by measuring the thickness of the subchondral bone plate (Zhen et al., 2013). Antibodies used for immunostaining of cartilage sections are as follows: ZIP8 and MTF1 in human cartilage tissue sections were detected by antibodies obtained from Proteintech (20459-1-AP) and Novus (NBP1-86380), respectively. […]

ZIP8 [3] = assay: Expression levels of metal ion transporters in chondrocytes treated with IL1β; type: cell-based; conditions: primary cultures of mouse articular chondrocytes
Description: FIG. 1a represents mRNA levels of metal ion transporters determined by qRT-PCR in articular chondrocytes treated with IL1β (n=10). Insert is Western blotting of ZIP8 in chondrocytes treated with IL1β.
as §2

[4] = chondrocytes infected with Ad-Zip8

Molecule: c1ccc(-c2ccccn2)nc1 [2,2-bipyridyl]
Ad-Zip8 (ZIP8)-induced upregulation of matrix-degrading enzymes, effect of the test agent [1, 4]: did not affect

Molecule: O=C(O)CN(CCN(CC(=O)O)CC(=O)O)CC(=O)O.[Ca] [CaEDTA, calcium-saturated EDTA]
ZIP8-mediated increase in Zn^2+ influx (ZIP8 [2]): abolished
IL1β-caused influx of Zn^2+ in chondrocytes, effect of the test agent (ZIP8 [2]): blocked
Ad-Mtf1-induced upregulation of matrix-degrading enzymes, effect of the test agent [1]: abolished
Ad-Zip8 (ZIP8)-induced upregulation of matrix-degrading enzymes, effect of the test agent [1, 4]: blocked
upregulation of MMP3, MMP13, and ADAMTS5 by IL1β, effect of the test agent [1]: abolished

Molecule: [Cl][Cd][Cl] [CdCl2]
inhibitory effects of TPEN on the ZIP8-mediated expression of matrix-degrading enzymes, effect of pre-incubation of TPEN with the metal salt [1]: no significant effects
MMP12 expression ([1]; chondrocytes treated with metal ion): modest induction
expression of matrix-degrading enzymes caused by the substance itself [1]: did not cause a marked expression
expression of matrix-degrading enzymes caused by the substance itself ([1]; listed as Cd^2+): no significant effect
inhibitory effects of TPEN on MTF1 transcriptional activity, effect of pre-incubation of TPEN with the metal salt (MTF1): not
MTF1 transcriptional activity, effect of the substance itself (MTF1): moderate activation

Molecule: [Cl][Fe][Cl] [FeCl2]
inhibitory effects of TPEN on the ZIP8-mediated expression of matrix-degrading enzymes, effect of pre-incubation of TPEN with the metal salt [1]: no significant effects
expression of matrix-degrading enzymes caused by the substance itself [1]: moderate expression
inhibitory effects of TPEN on MTF1 transcriptional activity, effect of pre-incubation of TPEN with the metal salt (MTF1): not
MTF1 transcriptional activity, effect of the substance itself (MTF1): no effect

Molecule: [Cl][Mn][Cl] [MnCl2]
inhibitory effects of TPEN on the ZIP8-mediated expression of matrix-degrading enzymes, effect of pre-incubation of TPEN with the metal salt [1]: no significant effects
expression of matrix-degrading enzymes caused by the substance itself [1]: did not cause a marked expression
inhibitory effects of TPEN on MTF1 transcriptional activity, effect of pre-incubation of TPEN with the metal salt (MTF1): not
MTF1 transcriptional activity, effect of the substance itself (MTF1): no effect

ZIP8-mediated increase in Zn^2+ influx (ZIP8 [2]): abolished
IL1β-caused influx of Zn^2+ in chondrocytes, effect of the test agent (ZIP8 [2]): blocked
MTF1 transcriptional activity in Ad-Zip8-infected chondrocytes, effect of the test agent (MTF1; 800 MOI of Ad-Zip8, TPEN 1 μM): inhibitory effects
Molecule: c1ccc(CN(CCN(Cc2ccccn2)Cc2ccccn2)Cc2ccccn2)nc1 [TPEN, N,N,N′,N′-tetrakis (2-pyridylmethyl)ethylenediamine]
Ad-Zip8-induced MMP expression, effect of co-injection (mouse knee joints): significantly blocked
Ad-Zip8-induced cartilage destruction, effect of co-injection (mouse knee joints): significantly blocked
Ad-Zip8-induced synovitis, effect of co-injection (mouse knee joints): significantly blocked
Ad-Mtf1-induced upregulation of matrix-degrading enzymes, effect of the test agent [1]: abolished
Ad-Zip8 (ZIP8)-induced upregulation of matrix-degrading enzymes, effect of the test agent [1, 4]: blocked
upregulation of MMP3, MMP13, and ADAMTS5 by IL1β, effect of the test agent [1]: abolished

cellular Zn^2+ level, effect of the substance itself (ZIP8 [2]): caused an influx of Zn^2+
cellular Zn^2+ level, effect of the substance itself (ZIP8 [2]; listed as IL-1): increases
Molecule: IL1β: proinflammatory cytokine that promotes catabolism in arthritic cartilage
ZIP8 expression levels (ZIP8 [3]): markedly increased

Molecule: mithramycin-A
Ad-Zip8 (ZIP8)-induced upregulation of matrix-degrading enzymes, effect of the test agent [1]: significantly attenuated
